The test system of one series is Hepatocellular Carcinoma. The conditions noted are these: patients, liver cancer treatment; cited from earlier work.
Series [1] has as its system A549: a human lung cancer cell line. Put plainly: MTT analytical method, A549 cells. The conditions noted are these: 72 h. In kind it is cell-based. The source says: (§1) MTT analytical method was used to test the prodrugs for various tumor cells.
(§2) • 1) Cell lines: NCI-H460, A549, LOVO, HT-29, MDA-MB-231, SGC7901, HepG2 or BEL-7402 cell lines. Culture: adherent culturing in D-MEM (Hyclone, Inc.) containing 10% fetal calf serum. The initial cell concentration was about 3×10^5 /mL. The cell was passaged by 1:3 dilution in every 2-3 days. On the day before the test, the cell was passaged by 1:2 dilution, the cell concentration for the test was 5-10×10^5 /mL. • 2) Dissolution and dilution of compounds: according to the weight and molecular weight of the drugs provided, 100-200 μL of DMSO was added. Then normal saline was added to make the final diluted concentration of the drugs be 5 mM (Note that the final concentration of DMSO should not be more than 10%). • 3) D-MEM or RPMI 1640 cell culture medium, Gibco, Inc. • 4) Fetal calf serum Hyclone, Inc. • 5) Cell dissociation buffer, 0.25% Trypsin+0.02% EDTA. • 6) MTT solution, MTT Powder (Sigma) were dissolved in PBS buffer solution to make a solution of 5 mg/mL. The solution was filtered by a 0.22 μm micropore membrane and stored at −20° C. • 7) PBS buffer solution. • 8) 10% acidified SDS, 0.01N HCl. • 9) Centrifuge tubes, haustorial tubes etc. (BD, Inc.); 96-well plates (Costatr, Inc.) Procedures: • 1) Cell inoculation: Cells grown for 24 hours after passage, which cells were in good growth state, were used. The cells were harvested by the routine method. The cell concentration was adjust with a fresh culture solution to 2×10^5/mL (for adherent cells)-3×10^5/mL (for suspension cells). The adherent cells were inoculated at 100 μL/well and then cultivated in an incubator with 5% CO2 at 37° C. for 24 h. Thereafter the used culture solution was removed and 95 μL/well of fresh culture solution was added. The suspension cells were inoculated at 95 μL/well directly. • 2) Drugs treatment: 9 concentration grades were designed for every drug, and every concentration had 3 wells. The control group had 5 wells. The control group was tested simultaneously in each test. The final concentrations of a drug added were […], and 5 μL normal saline was added to the control group. • 3) Cell culture and detection: the cells were cultured in an incubator with 5% CO2 at 37° C. for 72 h after the drug was added, then 10 μL MTT was added to each well and the culture was continued for 4 h. 100 μL of 10% SDS (containing 0.01N HCl) was added to each well. After 24 h, the absorbance (A) of each well was determined by Bio-rad 680 ELISA with the detection wavelength of 570 nm and the reference wavelength of 630 nm. Calculation:
(§3) First, the absorbance (A) of each well was averaged (removing any data with big difference). […] A0 was the mean absorbance of the control wells. The effect curve of the drug concentration was drawn using EXCEL software and the drug concentration for 50% cell survival was calculated according to an appropriate computing methods.
A general note: Tetrazolium dyes change colour on reduction, which living cells bring about.

Series [2] deals with NCI-H460: a human lung cancer cell line. Put plainly: MTT analytical method, NCI-H460 cells. In kind it is cell-based. The conditions noted are these: 72 h.
Excerpt: as §1, §2, §3

The subject of series [3] is HT29: a human colon cancer cell line. Put plainly: MTT analytical method, HT29 cells. The conditions noted are these: HT-29, 72 h. In kind it is cell-based.
Excerpt: as §1, §2, §3

For series [4], the system named is LOVO: a human colon cancer cell line. Put plainly: MTT analytical method, LOVO cells. In kind it is cell-based. The conditions noted are these: 72 h.
Excerpt: as §1, §2, §3

Series [5] relates to Bel7402: a human liver cancer cell line. Put plainly: MTT analytical method, Bel7402 cells. In kind it is cell-based. The conditions noted are these: Bel-7402, 72 h.
Excerpt: as §1, §2, §3

For series [6], the system named is HepG2: a human liver cancer cell line. In words: MTT analytical method, HepG2 cells. The format is cell-based. The conditions noted are these: 72 h.
Excerpt: as §1, §2, §3

Series [7] concerns SGC7901: a human gastric cancer line. Put plainly: MTT analytical method, SGC7901 cells. In kind it is cell-based. The conditions noted are these: SGC-7901, 72 h.
Excerpt: as §1, §2, §3

The subject of series [8] is MDA-MB-231: a human breast cancer line. In words: MTT analytical method, MDA-MB-231 cells. The format is cell-based. The conditions noted are these: MDA-MB-231, MTT, 72 h.
Excerpt: as §1, §2, §3

Some results are limits rather than exact numbers.

Take `COc1cccc2c1C(=O)c1c(O)c3c(c(O)c1C2=O)C[C@@](O)(C(=O)CO)C[C@@H]3O[C@H]1C[C@H](N)[C@H](O)[C@H](C)O1` [Doxorubicin]: the “fatal rate of complication” value in the series on Hepatocellular Carcinoma was roughly 25%.

In the case of `CCCCCCCCCCCCOC(=O)c1ccnc(C(=O)Nc2ccn([C@@H]3O[C@H](CO)[C@@H](O)C3(F)F)c(=O)n2)c1` [Compound 26, Dodecyl-2-((1-((2R,4R,5R)-3,3-difluoro-4-hydroxy-5-(hydroxymethyl)-tetrahydrofuran-2-yl)-2-oxo-1,2-dihydropyrimidin-4-yl)carbamoyl)isonicotinate], the IC50 is 3 µM in [1]; less than 1 µM in series [2]; 2 µM in series [3]; 16 µM in series [4]; 8 µM in series [5]; 2 µM in [6]. The IC50 in series [7] is greater than 16 µM; in series [8], 6 µM.

The IC50 is the concentration needed to halve the response being measured.
